Source: patent US20030220521A1, “Renal-selective prodrugs for control of renal sympathetic nerve activity in the treatment of hypertension” (G.D. Searle & Co., priority 1989, published 2003)

Legend:
male SHR = test: Assay XIII: renal blood flow experiments in anesthetized SHR (renal denervation, bulbocapnine); type: in vivo, rat; conditions: for Mean arterial pressure / Renal Blood Flow: conjugate alone
Description: This experiment was run to determine the roles of the renal sympathetic nerves and dopamine in the antihypertensive response to Ex. #859. For renal blood flow experiments, male SHR (11-13 weeks of age; Harlan Sprague-Dawley, Inc., Indianapolis, Ind.) were anesthetized (Inactin, 100 mg/kg, i.p.), catheters were implanted in a jugular vein and carotid artery, and an electromagnetic flow probe (Carolina Medical Electronics, Inc., King, N.C.) was placed on the left renal artery. Care was taken not to damage the renal nerves. A tracheal catheter maintained airway patency. The SHR were placed on a heated pad to maintain normal body temperature (Harvard Apparatus, South Natick, Mass.). In one group of SHR (n=6) surgical renal denervation was performed (prior to implanting the flow probe) through a left flank incision by surgically stripping the renal artery and vein of adventitia and cutting all visible renal nerve bundles under a dissection microscope (×25) and coating the vessels with a solution of 10% phenol in 95% ethanol, as previously described (9,10). In a second group of SHR (n=6) bulbocapnine (a dopamine receptor antagonist) was infused at 100 μg/kg/min starting 30 minutes prior to injection of Ex. #859 (50 mg/kg, i.v.) and continued for the duration of the study. In a third group of SHR (n=6) Ex. #859 (50 mg/kg, i.v.) was administered alone. In a final group of SHR (n=6) vehicle (0.9% NaCl) was administered. SHR were allowed 60 minutes for stabilization after surgery. After the stabilization period, 15 minutes of control mean arterial pressure and renal blood flow were obtained. Mean arterial pressure and renal blood flow were recorded for one hour.

Male mongrel dogs = test: Assay XII: acute i.v. effects on mean arterial pressure and renal blood flow in anesthetized dogs; type: in vivo, dog
Description: This experiment was run to determine the renal selectivity of conjugate of the invention in dogs. Male mongrel dogs (15-20 kg/n=8; Antech, Inc., Barnhard, Mo.) were anesthetized with sodium pentobarbital (30 mg/kg as i.v. bolus, and 4-6 mg/kg/hr infusion) and catheters were placed in the femoral veins for compound injection or pentobarbital infusion, and the femoral artery for arterial pressure recording. An electromagnetic flow probe (Carolina Medical Electronics, Inc., King, N.C.) was placed around the left renal artery for measurement of renal blood flow. Renal blood flow and arterial pressure were recorded on a Gould chart recorder. After surgery, 20-30 minutes were allowed for variables to stabilize. […] Variables were monitored for the next three hours. Results are shown in Table XXXIV and FIGS. 14 and 15.

[1] = test system: gamma-glutamyl transpeptidase and acylase I; test: Assay IV: metabolism of conjugate by purified transpeptidase and acylase; type: in vitro ADME
Description: […] The resulting suspension, diluted with buffer, was incubated in the presence of the Ex. #859 conjugate at 37° C. At various times aliquots were removed, deproteinized with an equal volume of cold trichloroacetic acid (25%) and centrifuged. The supernatant was injected onto a C-18 reverse-phase HPLC column and eluted isocratically with a mixture of acetonitrile and water (20:80 v/v) containing trifluoroacetic acid (0.05%). Eluted compounds were monitored by absorbance at 254 nm and compared to standards run under identical conditions. In the assay using pure kidney enzyme homogenate, the Ex. #859 conjugate was also incubated under the same conditions as described except that 5 mg of gamma-glutamyl transpeptidase (Sigma, 23 units/mg) and 10 mg of acylase I (Sigma, 4800 units/mg) were added in place of the homogenate. Analysis by HPLC was performed in a manner identical to that used for the kidney homogenate experiment.

[2] = test system: DOCA hypertensive micropigs; test: Assay XIV: chronic in vivo effects in DOCA hypertensive micropigs; set-up: species or system micropig; conditions: for Mean arterial pressure: 5 mg/kg/hr infusion
Description: This study examines the efficacy of Ex. #859 in deoxycorticosterone acetate ([…]) hypertensive micropigs (Charles River; 6 months of age). Micropigs were made hypertensive by implanting subcutaneously DOCA strips (100 mg/kg) under isoflurane anesthesia. Hypertension stabilizes after one month. Mean arterial pressure was measured using a Gould chart recorder and Statham P23dB transducers. After one month Ex. #859 conjugate was infused for three days at 5 mg/kg/hr).

anesthetized dog = test: Assay XI: intrarenal administration of fusaric acid in anesthetized dogs (MAP, RBF, UNaV); type: in vivo
[3] = 7 mg/kg, 1 hour after injection
[4] = 7 mg/kg, 2 hour after injection
[5] = 7 mg/kg, 3 hour after injection
[6] = 20 mg/kg i.v., 1 hour after injection
[7] = 20 mg/kg i.v., 2 hour after injection
[8] = 20 mg/kg i.v., 3 hour after injection
[9] = 60 mg/kg i.v., 1 hour after injection
[10] = 60 mg/kg i.v., 2 hour after injection
[11] = 60 mg/kg i.v., 3 hour after injection
[12] = Dog #1, intrarenal infusion 1.25 mg/kg/min
[13] = Dog #2, intrarenal infusion 0.75 mg/kg/min
[14] = anesthetized dog, bolus intrarenal 0.5, 1.0 and 5.0 mg/kg

CCCCc1ccc(C(=O)NNC(=O)CCC(NC(C)=O)C(=O)O)nc1 [Ex. #859, N-acetyl-L-glutamic acid, 5-[(5-butyl-2-pyridinyl)-carbonyl]hydrazide]
effect on renal blood flow (male SHR; anesthetized SHR, 50 mg/kg i.v. after surgical renal denervation): not changed | effect on renal blood flow (male SHR; anesthetized SHR, 50 mg/kg i.v. alone, 60 minutes after injection): increased | effect on renal blood flow (male SHR; anesthetized SHR, 50 mg/kg i.v. during bulbocapnine infusion (100 μg/kg/min)): not changed | effect on mean arterial pressure (male SHR; anesthetized SHR, 50 mg/kg i.v., all groups): not changed | Mean arterial pressure (male SHR; time 0 minutes): 149 ± 8 mmHg | Renal Blood Flow (male SHR; time 0 minutes): 7 ± 2 mL/min | Mean arterial pressure (male SHR; time 60 minutes): 149 ± 7 mmHg | Renal Blood Flow (male SHR; time 60 minutes): 12 ± 2 mL/min | Mean arterial pressure (Male mongrel dogs; [3]): 116 ± 5 mmHg | Renal Blood Flow (Male mongrel dogs; [3]): 92 ± 5 mL/min | Mean arterial pressure (Male mongrel dogs; [4]): 113 ± 4 mmHg | Renal Blood Flow (Male mongrel dogs; [4]): 111 ± 14 mL/min | Mean arterial pressure (Male mongrel dogs; [5]): 114 ± 4 mmHg | Renal Blood Flow (Male mongrel dogs; [5]): 118 ± 23 mL/min | Mean arterial pressure (Male mongrel dogs; 7 mg/kg, time zero): 114 ± 6 mmHg | Renal Blood Flow (Male mongrel dogs; 7 mg/kg, time zero): 92 ± 5 mL/min | Mean arterial pressure (Male mongrel dogs; [6]): 124 ± 2 mmHg | Renal Blood Flow (Male mongrel dogs; [6]): 107 ± 14 mL/min | Mean arterial pressure (Male mongrel dogs; [7]): 125 ± 3 mmHg | Renal Blood Flow (Male mongrel dogs; [7]): 122 ± 20 mL/min | Mean arterial pressure (Male mongrel dogs; [8]): 125 ± 4 mmHg | Renal Blood Flow (Male mongrel dogs; [8]): 126 ± 24 mL/min | Mean arterial pressure (Male mongrel dogs; 20 mg/kg i.v., time zero): 120 ± 3 mmHg | Renal Blood Flow (Male mongrel dogs; 20 mg/kg i.v., time zero): 88 ± 11 mL/min | Mean arterial pressure (Male mongrel dogs; [9]): 124 ± 1 mmHg | Renal Blood Flow (Male mongrel dogs; [9]): 145 ± 21 mL/min | Mean arterial pressure (Male mongrel dogs; [10]): 126 ± 3 mmHg | Renal Blood Flow (Male mongrel dogs; [10]): 168 ± 28 mL/min | Mean arterial pressure (Male mongrel dogs; [11]): 120 ± 4 mmHg | Renal Blood Flow (Male mongrel dogs; [11]): 176 ± 32 mL/min | Mean arterial pressure (Male mongrel dogs; 60 mg/kg i.v., time zero): 123 ± 3 mmHg | Renal Blood Flow (Male mongrel dogs; 60 mg/kg i.v., time zero): 131 ± 21 mL/min | Fusaric Acid formed from conjugate ([1]; 3 h, pH 7.4): 0.00 µg/mL | Fusaric Acid formed from conjugate ([1]; 3 h, pH 8.1): 0.00 µg/mL | Fusaric Acid formed from conjugate ([1]; 24 h, pH 7.4): 2.56 µg/mL | Fusaric Acid formed from conjugate ([1]; 24 h, pH 8.1): 1.12 µg/mL | Fusaric Acid formed from conjugate ([1]; 72 h, pH 7.4): 12.15 µg/mL | Fusaric Acid formed from conjugate ([1]; 72 h, pH 8.1): 4.46 µg/mL | Fusaric Acid formed from conjugate ([1]; 96 h, pH 7.4): 15.44 µg/mL | Fusaric Acid formed from conjugate ([1]; 96 h, pH 8.1): 5.22 µg/mL | Fusaric Acid formed from conjugate ([1]; 120 h, pH 7.4): 18.75 µg/mL | Fusaric Acid formed from conjugate ([1]; 120 h, pH 8.1): 6.55 µg/mL | species present after incubation ([1]; purified gamma-glutamyl transpeptidase and acylase I): only fusaric acid and the unreacted compound being present | Mean arterial pressure ([2]; Day 1): 151 ± 4 | Mean arterial pressure ([2]; Day 2): 132 ± 4 | Mean arterial pressure ([2]; Day 3): 119 ± 3 | effect on mean arterial pressure ([2]; conscious DOCA hypertensive micropigs, infusion 5 mg/kg/hr for three days): normalized mean arterial pressure

CCCCc1ccc(C(=O)O)nc1 [Fusaric Acid, 5-n-butylpicolinic acid]
MAP (anesthetized dog; [12]): 136 mm Hg | UNa V (anesthetized dog; [12]): 82 μEqlmin | Δ RBF (anesthetized dog; [12]): 240 mL/min | MAP (anesthetized dog; [13]): 148 mm Hg | UNa V (anesthetized dog; [13]): 13 μEqlmin | Δ RBF (anesthetized dog; [13]): 315 mL/min | effect on mean arterial pressure (anesthetized dog; [14]): no significant effect | effect on renal blood flow (anesthetized dog; [14]): dose-related increases | effect on urinary sodium excretion (anesthetized dog; [14]): no significant effect | effect on MAP, RBF and UNaV (anesthetized dog; anesthetized dog, bolus intrarenal injection 0.1 mg/kg): no effect on any measure | MAP (anesthetized dog; intrarenal bolus 0.1 mg/kg): 136 mm Hg | UNa V (anesthetized dog; intrarenal bolus 0.1 mg/kg): 21.2 μEq/min | Δ RBF (anesthetized dog; intrarenal bolus 0.1 mg/kg): 0 mL/min | MAP (anesthetized dog; intrarenal bolus 0.5 mg/kg): 136 mm Hg | UNa V (anesthetized dog; intrarenal bolus 0.5 mg/kg): 23.8 μEq/min | Δ RBF (anesthetized dog; intrarenal bolus 0.5 mg/kg): +46 ml/min | MAP (anesthetized dog; intrarenal bolus 1.0 mg/kg): 138 mm Hg | UNa V (anesthetized dog; intrarenal bolus 1.0 mg/kg): 21.1 μEq/min | Δ RBF (anesthetized dog; intrarenal bolus 1.0 mg/kg): +58 ml/min | MAP (anesthetized dog; intrarenal bolus 5.0 mg/kg): 140 mm Hg | UNa V (anesthetized dog; intrarenal bolus 5.0 mg/kg): 34.8 μEq/min | Δ RBF (anesthetized dog; intrarenal bolus 5.0 mg/kg): +132 ml/min
